Literature values as cited in PMC6318333, “A chemical biology toolbox to study protein methyltransferases and epigenetic signaling” (Nature Communications, 2019).

Biological target: T1, SMYD3 (Homo sapiens, UniProt Q9H7B4)
T1 sequence (Q9H7B4 1-428): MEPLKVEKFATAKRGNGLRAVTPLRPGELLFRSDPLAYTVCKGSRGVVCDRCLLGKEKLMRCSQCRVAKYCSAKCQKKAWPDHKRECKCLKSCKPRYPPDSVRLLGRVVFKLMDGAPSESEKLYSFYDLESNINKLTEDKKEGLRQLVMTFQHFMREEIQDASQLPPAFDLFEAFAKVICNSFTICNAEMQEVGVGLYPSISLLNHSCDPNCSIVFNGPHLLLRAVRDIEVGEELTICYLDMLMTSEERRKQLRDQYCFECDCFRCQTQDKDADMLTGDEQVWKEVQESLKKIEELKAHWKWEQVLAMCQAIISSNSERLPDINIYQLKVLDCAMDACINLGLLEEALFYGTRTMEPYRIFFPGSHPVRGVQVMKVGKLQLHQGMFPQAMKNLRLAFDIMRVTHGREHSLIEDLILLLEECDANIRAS
Assay: biochemical methyltransferase assay with recombinant protein
Settings: read-out: In vitro IC50 or Kd

Q: Which IC50 does the source give for BAY-6035 here?
A: Its IC50 is 88 nM.
